pEC50: −log10 of the molar value. Active and inactive are the calls of the source.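 How the source made its calls: active means EC50 under 50 µM in a live-cell viability test; inactive means the rest.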

A word on the pEC50: it is the EC50 on a negative log10 scale, so that one unit is a factor of ten. By EC50 is commonly meant the concentration at which the effect is half-maximal.

The subject of the assay is HL60 proliferation, XTT absorbance. Description: antiproliferative activity against HL60 AML cells – cell-based, XTT absorbance, dose response (AID 1794805).
As to `O=C(NCC1CCNCC1)c1coc2cc(-c3ccc(N4CCCCC4)cc3)ccc12`, the pEC50 is 5.01.
Turning to `O=C(NCC1CCNCC1)c1cc2ccc(-c3ccc(N4CCCC4)cc3)cc2s1`, the pEC50 was 4.59.
As to `O=C(NCC1CCNCC1)c1c[nH]c2cc(-c3ccc(N4CCCCC4)cc3)ccc12`, the pEC50 is 4.30.
On to `NC(=O)c1ccc(-c2ccc3cc(C(=O)NCC4CCNCC4)sc3c2)cc1`, for which the EC50 was > 51 µM (inactive).
`O=C(NCC1CCNCC1)c1cc2ccc(-c3ccc(N4CCCCC4)cc3)cc2s1`: the pEC50 is 5.00.
Turning to `NCc1ccc(-c2ccc3cc(C(=O)NCC4CCNCC4)oc3c2)cc1`, the EC50 is > 51 µM (inactive).
Turning to `O=C(NCC1CCNCC1)c1cc2cc(-c3ccc(N4CCCCC4)cc3)ccc2s1`, the pEC50 is 5.05.
As to `O=C(NCC1CCNCC1)c1c[nH]c2cc(-c3ccc(N4CCCC4)cc3)ccc12`, the pEC50 was 4.30.
The same measure, in the same setting: the value for `O=C(NCC1CCNCC1)c1cc2cc(-c3ccc(N4CCCCC4)cc3)ccc2[nH]1` was 4.30.
Take `O=C(NCC1CCNCC1)c1cc2cc(-c3cn[nH]c3)ccc2[nH]1`: the EC50 is > 51 µM (inactive).

These data come from PubChem BioAssay AID1794805 (Yongcheng Song lab at Baylor College of Medicine, 2022).
